Data published in PubChem BioAssay (NCI).
Where “and” joins values, the source holds several entries; their conditions need not be identical. Equal entries are not always repeated.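 Test compounds were applied to cells in 96-well plates for 48 hours at 5 doses. Here, GI50 denotes the concentration required for 50% inhibition of growth. The concentration for full growth arrest is given as TGI.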

Assays:
Test in all cases: NCI anticancer screen, dose series, 48 h
MOLT-4 leukemia = test system: MOLT-4 leukemia
K-562 leukemia = test system: K-562 leukemia
OVCAR-8 ovarian = test system: OVCAR-8 ovarian
HS 578T breast = test system: HS 578T breast
MDA-MB-435 = test system: MDA-MB-435
SW-620 colon = test system: SW-620 colon
SK-MEL-2 melanoma = test system: SK-MEL-2 melanoma
OVCAR-5 ovarian = test system: OVCAR-5 ovarian
MALME-3M melanoma = test system: MALME-3M melanoma
BT-549 breast = test system: BT-549 breast

SMILES | GI50 (MOLT-4 leukemia) | TGI (MOLT-4 leukemia) | GI50 (K-562 leukemia) | TGI (K-562 leukemia) | GI50 (OVCAR-8 ovarian) | TGI (OVCAR-8 ovarian) | GI50 (HS 578T breast) | TGI (HS 578T breast) | GI50 (MDA-MB-435) | TGI (MDA-MB-435) | GI50 (SW-620 colon) | TGI (SW-620 colon) | GI50 (SK-MEL-2 melanoma) | TGI (SK-MEL-2 melanoma) | GI50 (OVCAR-5 ovarian) | TGI (OVCAR-5 ovarian) | GI50 (MALME-3M melanoma) | TGI (MALME-3M melanoma) | GI50 (BT-549 breast) | TGI (BT-549 breast)
O=C(O)C(=O)CBr | > 40.6 µM and 21.9 µM | > 72.9 µM and 51.9 µM | > 22.2 µM and 23.8 µM | > 68.2 µM and 59.1 µM | > 43.4 µM and 19.5 µM | > 59.7 µM and 36.7 µM | > 100 µM and 29.2 µM | > 100 µM and 72.4 µM | > 70.4 µM and 18 µM | > 100 µM and 32.7 µM | 6.8 µM | > 35.3 µM and 21.6 µM | > 100 µM and 20 µM | > 100 µM and 37.5 µM | > 44.2 µM and 18.4 µM | > 64.8 µM and 37.5 µM | > 41.7 µM and 16.9 µM | > 59.1 µM and 32.5 µM | > 47.6 µM and 20 µM | > 77.9 µM and 35.2 µM
COc1ccc(NC(=O)/C=C(C)/C=C/C=C(C)\C=C\C2=C(C)CCCC2(C)C)cc1 | 55.1 µM | > 100 µM | 30.3 µM | > 100 µM | > 100 µM | > 100 µM | 9.02 µM | 96.7 µM | 48.2 µM | > 100 µM | 51.6 µM | > 100 µM | 72.4 µM | > 100 µM | > 100 µM | > 100 µM | 41.2 µM | > 100 µM | > 100 µM | > 100 µM
O=C(NCCCCOCC#Cc1ccccc1C#CCS(=O)(=O)c1ccccc1)c1cc2ccccc2[nH]1 | – | > 10.1 µM | 6.83 µM | > 50 µM | 11.4 µM | 48.9 µM | 21.9 µM | > 50 µM | 10.6 µM | 30.3 µM | 11.5 µM | > 45.5 µM | 20.9 µM | > 50 µM | 26.8 µM | > 50 µM | 7.85 µM | 24.1 µM | 8.38 µM | > 27.1 µM
CO[C@H](C(=O)O)[C@@H]1Cc2cc3cc(OC4CC(OC5CC(O)C(O)C(C)O5)C(O)C(C)O4)c(C)c(O)c3c(O)c2C(=O)[C@H]1OC1CC(OC2CC(OC3CC(C)(O)C(O)C(C)O3)C(O)C(C)O2)C(O)C(C)O1 (some centres undefined) | 0.272 µM | 6.41 µM | 0.303 µM | > 32.5 µM | 0.284 µM | > 32.5 µM | 0.161 µM | > 32.5 µM | 0.309 µM | 1.61 µM | 0.245 µM | > 32.5 µM | 0.335 µM | 1.56 µM | 0.375 µM | > 32.5 µM | 0.205 µM | 1.4 µM | 0.136 µM | 1.13 µM
CC(C)(C)C(=O)OCc1nc2cc3c(cc2c(=O)[nH]1)CCC3=O | > 100 µM | > 100 µM | > 100 µM | > 100 µM | > 100 µM | > 100 µM | > 100 µM | > 100 µM | > 100 µM | > 100 µM | > 100 µM | > 100 µM | > 100 µM | > 100 µM | > 100 µM | > 100 µM | > 100 µM | > 100 µM | > 100 µM | > 100 µM
CC[C@H](NC(=O)[C@H](CS(=O)(=O)CC1CC1)N[C@@H](c1ccc(F)cc1)C(F)(F)F)C(=O)C(=O)NC1CC1 | 32.8 µM | > 100 µM | > 100 µM | > 100 µM | > 100 µM | > 100 µM | > 100 µM | > 100 µM | > 100 µM | > 100 µM | > 100 µM | > 100 µM | > 100 µM | > 100 µM | > 100 µM | > 100 µM | > 100 µM | > 100 µM | > 100 µM | > 100 µM
